From EP3381907A1, “SYMMETRICAL 2-AMINOPHENYL-BENZAZOLYL-5-ACETATE COMPOUNDS AND THEIR USE AS ANTI-HEPARANASE” (Leadiant Biosciences SA, priority 2017, dated 2018)

Legend:
[1] = tested on: HT1080 (human fibrosarcoma); assay: Matrigel cell invasion assay, HT1080; assay type: cell-based; conditions: HT-1080, HT1080, test compound at 2.5 µM, 24 h pre-treatment, 24 h invasion
Protocol: (§1) Heparanase inhibitors were then evaluated for their activity on the invasive potential of HT1080 (human fibrosarcoma), U87MG (human glioblastoma astrocytoma) and U2OS (human osteosarcoma) human cell lines, using the Matrigel cell invasion assay which allows to assess the cell invasion ability of malignant and normal cells.
(§2) Invasion assay was performed using BioCoat cell culture inserts (BioCoat 8.0µm PET Membrane 24 Well Permeable Supports, Corning). Filters were coated with 100 µl of 300 µg/ml Matrigel dissolved in coating buffer (0.01 M Tris pH 8.0, 0.7% NaCl) (Becton-Dickinson Sciences). DMEM (Dulbecco's Modified Eagle's Medium) containing 5% FBS was added to the lower chambers. Cells were pre-treated with heparanase inhibitors for 24 h, detached and added to the upper chambers in media containing the inhibitors. Cells were allowed to invade for 24 h at 37°C in a CO2 incubator and then unmigrated cells were removed from the upper chamber with a cotton swab. The invading cells were fixed, stained with 0.1% crystal violet for 10 min at room temperature, photographed and counted under inverted microscope.
(§3) Test compounds were analyzed at fixed concentration (2.5 µM) for several fields, in duplicates. Activity of test compounds was compared to the reference compound. Activity of most interesting compound was confirmed in a second cell invasion assay. Data were expressed as the percent invasion with respect to cell migration through uncoated insert membrane (see Table 3 below)
(§4) Table 3. […] In Invasion assay, data were expressed as the percent invasion (range) with respect to cell migration through uncoated insert membrane. In Adhesion assay, data were expressed as the percent of adhesion with respect to the control (100%). • Legend • ++: 50-90% • + : < 50% • - : Not Active

heparanase = target: T1, heparanase (Homo sapiens, UniProt Q9Y251); assay: AGA*IA assay: colorimetric fondaparinux cleavage assay for heparanase inhibition (WST-1); assay type: biochemical; conditions: 2.5 nM heparanase, 100 µM fondaparinux, pH 5.0, 3 h at 37°C; class symbols
T1 sequence (Q9Y251 158-543 limits assumed): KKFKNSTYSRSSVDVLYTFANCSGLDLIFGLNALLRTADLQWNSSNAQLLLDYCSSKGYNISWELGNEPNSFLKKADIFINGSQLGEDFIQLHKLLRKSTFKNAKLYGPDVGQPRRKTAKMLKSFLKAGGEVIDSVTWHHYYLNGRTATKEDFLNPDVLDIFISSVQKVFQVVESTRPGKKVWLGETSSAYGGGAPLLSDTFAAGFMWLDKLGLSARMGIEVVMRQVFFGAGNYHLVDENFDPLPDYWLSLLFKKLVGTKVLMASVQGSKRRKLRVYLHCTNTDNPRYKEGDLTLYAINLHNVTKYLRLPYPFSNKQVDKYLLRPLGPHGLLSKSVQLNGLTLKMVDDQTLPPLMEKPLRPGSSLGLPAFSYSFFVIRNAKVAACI
T1 sequence (Q9Y251 36-109 limits assumed): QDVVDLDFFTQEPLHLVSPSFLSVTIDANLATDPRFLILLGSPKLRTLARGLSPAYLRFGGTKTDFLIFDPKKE
Protocol: All compounds were tested in a simple, accurate and robust microplate assay based on the cleavage of the synthetic heparin fragment, the pentasaccharide Fondaparinux (AGA*IA). This assay was originally developed by Hammond and coworkers [Hammond E, Li CP, Ferro V. Development of a colorimetric assay for heparanase activity suitable for kinetic analysis and inhibitor screening. Anal. Biochem. 396(1), 112-116 (2010)], where Fondaparinux corresponds to the methyl glycoside of the antithrombin III (ATIII)-activating pentasaccharide sequence of heparin. Fondaparinux is cleaved by heparanase to generate a reducing disaccharide, which can be quantitatively measured via a colorimetric or a fluorescence assay, the last by the fluorescent sensor polymer-H [Schiemann S, Lühn S, Alban S. Development of both colorimetric and fluorescence heparinase activity assays using fondaparinux as substrate. Anal. Biochem. 427(1), 82-89 (2012)].
The assay measures the appearance of the disaccharide product of heparanase-catalyzed fondaparinux cleavage colorimetrically using the tetrazolium salt WST-1. Assay was essentially performed as described with minor modifications. Briefly, NUNC ELISA 96-well plates were pre-treated with a solution of 4% BSA (bovin serum albumin) in phosphate-buffered saline containing 0.05% Tween 20 (PBST), for 2 h at 37°C, then washed three times with PBST, dried by tapping on paper towel and stored at -20°C. Before use, once again, the plates were washed with PBST.
Assay was carried out with 100 µl/well of assay solution containing 40 mM sodium acetate buffer (pH 5.0), 100 µM fondaparinux, 2.5 nM heparanase and serial dilutions of test compounds (tested in triplicate). Plates were sealed with adhesive tape and incubated, in the dark, for 3 h at 37°C, followed by development with 1.69 mM of the tetrazolium salt WST-1 solution in 0.1 M NaOH, for 1 h at 60°C. Then, the absorbance at 560 nm was measured through a microplate reader (Victor 3, Perkin Elmer).
Finally, the measurements were corrected by subtracting both the reagent background and the inner absorbance value of test compound.

[2] = tested on: HT1080 (human fibrosarcoma); assay: SRB Cell Cytotoxicity Assay, HT1080; assay type: cell-based; conditions: HT-1080, HT1080, 72h treatment, read-out: Concentration (µM) of test compounds at which the cell growth is inhibited by 50 %. HT1080
Description: SRB Cell Cytotoxicity Assay is an assay based upon the quantitative staining of cellular proteins by sulforhodamine B (SRB). This assay can be used for high-throughput drug screening (Vichai & Kirkitara, Nature Protocol. 2006, 1, 112). Sulforhodamine B is an anionic aminoxanthene dye that forms an electrostatic complex with the basic amino acid residues of proteins under moderately acid conditions, which provides a sensitive linear response.
To assess a putative antiproliferative activity of the selected compounds, HT1080 (human fibrosarcoma), U87MG (human glioblastoma astrocytoma) and U2OS (human osteosarcoma) cell lines were treated for 72h, in triplicate, with increasing concentrations of heparanase inhibitors. Inhibition of cell proliferation was then measured by the classical colorimetric SRB Cell Cytotoxicity assay. Absorbance was measured by spectrophotometer at a wavelength of 510 nm and cell proliferation was determined as percent with respect to control cells (cells treated with the vehicle alone). EC50 values were then determined by GraphPad Prism.

[3] = tested on: U87MG (human glioblastoma astrocytoma); assay: Matrigel cell invasion assay, U87MG; assay type: cell-based; conditions: Homo sapiens, U-87 MG, test compound at 2.5 µM, 24 h pre-treatment, 24 h invasion
Protocol: as §1, §2, §3, §4

Structure (SMILES)	inhibition at 2.5 µM [1]	IC50 (heparanase)	EC50 [2]	inhibition at 2.5 µM [3]
O=C(O)Cc1ccc2oc(-c3ccc(NC(=O)Nc4ccc(-c5nc6cc(CC(=O)O)ccc6o5)cc4F)c(F)c3)nc2c1 [Compound 20, 2,2'-(((Carbonylbis(azanediyl))bis(3-fluoro-4,1-phenylene))bis(benzo[d]oxazole-2,5-diyl))diacetic acid]	< 50%	50 to 490 nM	> 10 µM	50 to 90%
O=C(O)CNC(=O)Cc1ccc2oc(-c3ccc(NC(=O)Nc4ccc(-c5nc6cc(CC(=O)NCC(=O)O)ccc6o5)cc4F)c(F)c3)nc2c1 [Compound 25, 2,2'-((2,2'-(((Carbonylbis(azanediyl))bis(3-fluoro-4,1-phenylene))bis(benzo[d]oxazole-2,5-diyl))bis(acetyl))bis(azanediyl))diacetic acid]	50 to 90%	50 to 490 nM	> 10 µM	50 to 90%
